Where two headings read alike, the source gives them in different places.

The target in the test is Gβ1γ2 (UniProt P54311+P63212). As to the kind of experiment: Competition phage ELISA: inhibition of SIGK-phage binding to immobilized biotinylated Gβ1γ2. Set-up: made in house; host or cells: Sf9 insect cells (baculovirus; co-expressed with BirA and (His)6-Gαi1, from which βγ was eluted); species or system rat. To be noted: for binding to the G protein β subunit: result in words. The protocol: Phage ELISA assays used to assess peptide binding to wild-type and mutant b-βγ were performed according to standard methods (Smrcka and Scott (2002) Methods Enzymol. 344:557-76). Briefly, 1 μg streptavidin was immobilized in the well of a […] overnight at 4° C. The wells were blocked with 100 μL of 2% bovine serum albumin (BSA) in Tris-buffered saline (TBS) for 1 hour at 4° C. followed by three washes of IX TBS/0.5% TWEEN®. […] The wells were washed, followed by the addition of IxIO^6 to IxIO^10 phage particles and incubated at 4° C. for 3 hours. The wells were then washed six times with TBS/0.5% TWEEN® followed by addition of 40 μL of 1:5000 dilution of anti-M13 antibody (Pharmacia, Uppsala, Sweden) and incubated at room temperature for 1 hour. The wells were washed, followed by the addition of 40 μL of (2,2′-Azino-bis (3-ethylbenzthiazoline)-6-sulfonic acid (ABTS) and the colorimetric reaction was monitored at 405 nm. Nonspecific binding was subtracted for each reading.
A phage ELISA assay was used to determine whether small molecules identified in the computational screen could interact with the Gβy protein interaction surface. […] The screen was based on a reduction in the optical density (OD) of wells containing Gβγ subunits and phage. […] Three background wells contained no βy subunits.
As disclosed herein, biotinylated Gβy subunits were immobilized on the surface of a 96-well plate coated with streptavidin, phage displaying Gβγ-binding peptides were subsequently added and binding in the presence and absence of test compounds detected with an anti-phage antibody.
The phage ELISA assay was used to rapidly screen the ability of compounds to bind to the protein interaction “hot spot” based on the method of Scott et. al (Scott et al., 2001). This assay is performed in the presence of detergent (0.5% Tween) to eliminate non-specific compound aggregation artifacts.
Compounds/DMSO and 0.1×10^10 phage were added simultaneously and subsequently incubated for 1 h at room temperature. Plates were then washed with 1× Tris-buffered saline/0.5% Tween 20 and incubated with anti-M13, HRP-conjugated antibody (Amersham, Chalfont St. Giles, Buckinghamshire, UK). Phage binding was determined by monitoring A405 upon addition of 2,2′-azino-bis(3-ethylbenzothiazoline-6-sulfonic acid) (Sigma Aldrich).
A general note: An ELISA detects its analyte on a solid surface through an enzyme-linked reagent.

The mark [1] stands for this setting: kind of constant not stated, read-out: binding to the G protein β subunit.

As for `CNc1ccc(Nc2cc(S(=O)(=O)O)c(N)c3c2C(=O)c2ccccc2C3=O)cc1`, under “Table 2, read-out: Elisa IC50”, the IC50 was 59000 nM.

With `CC1C2C=CC1C(c1c3ccc(=O)c(O)c-3oc3c(O)c(O)ccc13)C2C(=O)O` (stereo not drawn), the IC50 (Table 6) was 700 nM.

Take `O=C(O)C1CC23C(Cl)C(Cl)C(Cl)C(Cl)C2(CC1c1c2ccc(=O)c(O)c-2oc2c(O)c(O)ccc12)C3(Cl)Cl` (stereo not drawn): where the note is “Table 6”, the IC50 is 200 nM.

Regarding `O=C(O)c1ccccc1-c1c2ccc(=O)c(O)c-2oc2c(O)c(O)ccc12`, the IC50 (Table 6) amounted to 200 nM.

Molecule `O=C1C=CC2C(=C1O)Oc1c(ccc(O)c1O)/C2=C\C=C(O)O` (stereo not drawn) showed an IC50 (Table 6) of 200 nM.

Consider `Cc1cc(N)c2cc(CC(=O)C(C)(C)C(=O)Nc3ccc4nc(C)cc(N)c4c3)ccc2n1`, for which the IC50 (Table 7, read-out: ELISA IC50) was 74000 nM.

Take `Ic1ccc2c(c1)N(c1ccccc1)c1cc(Nc3ccc4c(c3)N(c3ccccc3)c3cc(I)ccc3N4)ccc1N2`: the IC50 (Table 7, read-out: ELISA IC50) turned out to be 2000 nM.

Turning to “7-methyl-3-(4,5,6-trihydroxy-3-oxo-3H-xanthen-9-yl)bicyclo[2.2.1]hept-5-ene-2-carboxylic acid”, for the setting “kind of constant not stated, read-out: binding to the protein interaction site of the β subunit of a G protein”, the IC50 turned out to be 700 nM.

For the molecule `Cc1c2cc(O)c(=O)cc-2oc2cc(O)c(O)cc12` [2,6,7-trihydroxy-9-methyl-3H-xanthen-3-one], the “binding to the G protein β subunit” value is “did not provide a compound that exhibited binding”.

With `O=C(O)CCc1c2ccc(=O)c(O)c-2oc2c(O)c(O)ccc12` [3-(4,5,6-trihydroxy-3-oxo-3H-xanthen-9-ylpropanoic acid], the IC50 under setting [1] came to 2500 nM.

For the molecule `O=C(O)CCc1c2ccc(=O)cc-2oc2cc(O)ccc12` [3-(6-hydroxy-3-oxo-3H-xanthen-9-yl)propionic acid], the “binding to the G protein β subunit” value was “Neither of these compounds showed any binding”.

Consider `O=C(O)C1C2C=CC(C2)C1c1c2ccc(=O)cc-2oc2cc(O)ccc12` (stereo not drawn) [3-(6-hydroxy-3-oxo-3H-xanthen-9yl)bicyclo[2.2.1]hept-5-ene-2-carboxylic acid], for which the IC50 under setting [1] worked out at 14000 nM.

Source of the values: patent US8975259B2, “Compositions and methods for inhibiting G protein signaling” (University of Rochester, priority 2007, dated 2015).
